What was measured:
SARS-CoV-2 = settings: comparator, FDA approved drug; cited from earlier work
[1] = system: SARS-CoV-2 (NRC-03-nhCoV strain); assay: In vitro anti-SARS-CoV-2 activity of RH 1-23 compounds (Vero-E6 cells, crystal violet); assay type: cell-based
Method: The antiviral activity was carried out as previously described. Briefly, 96-well tissue culture plates were seeded with 2.4×10^4 Vero-E6 cells/and incubated overnight in Dulbecco's Modified Eagle's medium (DMEM) containing 10% Fetal Bovine Serum (FBS) and 1% penicillin/streptomycin antibiotic mixture at a humidified 37° C. incubator under 5% CO2. The cells were treated with SARS-CoV-2 (NRC-03-nhCoV strain, accession #EPI_ISL_430820) for viral adsorption, which was further overlaid with 50 μl DMEM containing varying concentrations of the tested compounds. Following incubation at 37° C. and 5% C02 for 72 h, the cells were fixed with 100 μl of 4% paraformaldehyde for 20 min and stained at room temperature with 0.1% crystal violet in distilled water for 15 min. The crystal violet dye was then dissolved in 100 μl methanol and the optical density of the obtained color was measured at 570 nm using Anthos Zenyth 200 rt plate reader (Anthos Labtec Instruments, Heerhugowaard, Netherlands).

Structure (SMILES) | in vitro antiviral activity against SARS-CoV-2 (SARS-CoV-2) | in vitro antiviral activity against SARS-CoV-2 [1]
CC(C)C(=O)OC[C@H]1O[C@@H](n2ccc(NO)nc2=O)[C@H](O)[C@@H]1O [Molnupiravir] | μM range | 
N#C[C@@]1(c2ccc3c(NC(=O)c4ccc(NC(=N)N)cc4)ncnn23)O[C@H](CO)[C@@H](O)[C@H]1O [RH11, (2R,3R,4S,5R)-N-[7-(2-cyano-3,4-dihydroxy-5-hydroxymethyl-tetrahydro-furan-2-yl)-pyrrolo[2,1-f]-[1,2,4]-triazin-4-yl]-4-guanidino-benzamide] |  | nM range
CC(C)c1cc(=O)oc2ccc(OC(=O)c3ccc(NC(=N)N)cc3)cc12 [RH12, 4-guanidino-benzoic acid 4-isopropyl-2-oxo-2H-chromen-6-yl ester] |  | nM range

— US20240226128A1, “NOVEL COMPOUNDS WITH DUAL INHIBITION ACTIVITY AGAINST SARS-COV-2 CRITICAL ENZYMES RDRP, MPRO AND HUMAN TMPRSS2” (priority 2022, published 2024)
